Measurements published in patent publication US20240217964A1, “QUINUCLIDINONE ANALOGUES AS ANTICANCER AGENTS” (Newave Pharmaceutical Inc., priority 2021, published 2024).
pIC50: −log10 of the molar value.

Key:
[1] = test system: RS4;11-G101V cell line; assay: In vitro anti-proliferation assay (ATPlite) in RS4;11 with G101V mutation; assay type: cell-based; conditions: about 72 hours incubation
Procedure: (§1) Cell antiproliferation was assayed by PerkinElmer ATPlite™ Luminescence Assay System. Briefly, the various test cancer cell lines were plated at a density of about 1×10^4 cells per well in Costar 96-well plates, and were incubated with different concentrations of compounds for about 72 hours in medium supplemented with 5% FBS or 10% normal human serum(NHS). One lyophilized substrate solution vial was then reconstituted by adding 5 mL of substrate buffer solution, and was agitated gently until the solution was homogeneous. About 50 μL of mammalian cell lysis solution was added to 100 μL of cell suspension per well of a microplate, and the plate was shaken for about five minutes in an orbital shaker at ˜700 rpm. This procedure was used to lyse the cells and to stabilize the ATP. Next, 50 μL substrate solution was added to the wells and microplate was shaken for five minutes in an orbital shaker at ˜700 rpm. Finally, the luminescence was measured by a PerkinElmer TopCount® Microplate Scintillation Counter. Such assays, carried out with a range of doses of test compounds, allowed the determination of the cellular anti-antiproliferative IC50 of the compounds of the present invention. The following table lists the IC50 values of certain compounds of the invention.
The following table lists the IC50 values of the in vitro anti-proliferation assay in RS4;11-G101V cell line.

[2] = test system: DB; assay: In vitro anti-proliferation assay (ATPlite) in p53 mutant cell line DB; assay type: cell-based; conditions: Mutation R248Q, about 72 hours incubation
Procedure: as §1
(§2) The following table lists the IC50 values of another in vitro anti-proliferation assay in different p53 mutant cell lines.

[3] = test system: KASUMI-1; assay: In vitro anti-proliferation assay (ATPlite) in p53 mutant cell line KASUMI-1; assay type: cell-based; conditions: Cell line KASUMI-1, Mutation R248Q, about 72 hours incubation
Procedure: as §1, §2

[4] = test system: CEM(R248Q); assay: In vitro anti-proliferation assay (ATPlite) in p53 mutant cell line CEM(R248Q); assay type: cell-based; conditions: Mutation R175H, about 72 hours incubation
Procedure: as §1, §2

[5] = test system: SUP-T1; assay: In vitro anti-proliferation assay (ATPlite) in p53 mutant cell line SUP-T1; assay type: cell-based; conditions: Cell line SUP-T1, Mutation R273H, about 72 hours incubation
Procedure: as §1, §2

[6] = Mice PK study; assay type: in vivo; conditions: CD-1 mouse
Procedure: The pharmacokinetics of compounds were evaluated in CD-1 mouse via Intravenous and Oral Administration. The IV dose was administered as a slow bolus in the Jugular vein, and oral doses were administered by gavage. The formulation for IV dosing was 5% DMSO in 20% HPBCD in water, and the PO formulation was 2.5% DMSO, 10% EtOH, 20% Cremphor EL, 67.5% D5W. The PK time point for the IV arm was 5, 15, 30 min, 1, 2, 4, 6, 8, 12, 24 hours post dose, and for PO arm was 15, 30 min, 1, 2, 4, 6, 8, 12, 24 hours post dose. Approximately 0.03 mL blood was collected at each time point. Blood of each sample was transferred into plastic micro centrifuge tubes containing EDTA-K2 and collect plasma within 15 min by centrifugation at 4000 g for 5 minutes in a 4° C. centrifuge. Plasma samples were stored in polypropylene tubes. The samples were stored in a freezer at −75±15° C. prior to analysis. Concentrations of compounds in the plasma samples were analyzed using a LC-MS/MS method. WinNonlin (Phoenix™, version 6.1) or other similar software was used for pharmacokinetic calculations. The following pharmacokinetic parameters were calculated, whenever possible from the plasma concentration versus time data: IV administration: Co, CL, Vd, T1/2, AUCinf, AUClast, MRT, Number of Points for Regression; PO administration: Cmax, Tmax, T1/2, AUCinf, AUClast, F %, Number of Points for Regression. The pharmacokinetic data was described using descriptive statistics such as mean, standard deviation.

Row | Structure (SMILES) | pIC50 [1] | pIC50 ([2]; Homo sapiens) | pIC50 ([3]; Homo sapiens) | pIC50 [4] | pIC50 ([5]; Homo sapiens) | Bioavailabilty ([6]; Oral, 100 mpk) [%] | AUClas ([6]; Oral, 100 mpk, plasma) | bioavailability (in words) ([6]; oral) | pIC50 [2] | pIC50 [3] | pIC50 [5]
1 | COCC1(CO)C(=O)C2CCN1CC2 (centres unmarked) [APR-246, reference compound] | 5.75 |  |  |  |  |  |  |  |  |  | 
2 | COC[C@@]1(CO)C(=O)C2CCN1CC2 [ARP-246-S, (S)-2-(hydroxymethyl)-2-(methoxymethyl)quinuclidin-3-one, reference compound] |  | 5.52 | 6.00 | 6.31 | 5.32 |  |  |  |  |  | 
3 | COC[C@]1(CO)C(=O)[C@H]2CC[N@]1[C@H](C)C2 [Example 17, (1R,2R,4S,6R)-2-(hydroxymethyl)-2-(methoxymethyl)-6-methylquinuclidin-3-one] | 6.14 |  |  | 6.25 |  | 79 | 26,093 h*ng/ml | excellent bioavailable | 5.43 | 6.00 | 5.68
4 | COC[C@@]1(CO)C(=O)[C@@H]2CC[N@@]1[C@@H](C)C2 [Example 18, (1S,2S,4R,6S)-2-(hydroxymethyl)-2-(methoxymethyl)-6-methylquinuclidin-3-one] | 5.74 |  |  | 6.16 |  |  |  |  | 5.54 | 5.70 | 5.59
5 | COC[C@]1(CO)C(=O)[C@@H]2CC[N@@]1[C@@H](C)C2 [Example 27, (1S,2R,4R,6S)-2-(hydroxymethyl)-2-(methoxymethyl)-6-methylquinuclidin-3-one] |  |  |  | 5.80 |  |  |  |  | 5.48 | 5.59 | 5.48
6 | COC[C@@]1(CO)C(=O)[C@H]2CC[N@]1[C@H](C)C2 [Example 28, (1R,2S,4S,6R)-2-(hydroxymethyl)-2-(methoxymethyl)-6-methylquinuclidin-3-one] |  |  |  | 5.35 |  |  |  |  | 4.74 | 5.12 | 4.90
